{"source": "patent US8058286B2", "about": "“Method for therapy of diarrhea-predominant irritable bowel disorders” (Toray Industries, Inc., priority 2005, dated 2011)", "tested_on": "Rat Defecation Models Induced by Restraint Stress", "assay": "Rat defecation models induced by restraint stress (number of feces within 60 minutes)", "format": "in vivo", "description": "The fact that the morphinan derivatives having the nitrogen-containing cyclic substituent, represented by Formula (I) and the pharmaceutically acceptable acid addition salts thereof are effective for functional bowel disorders may be confirmed by showing inhibitory action against transportation ability of large intestine, which ability has been increased by applying restraint stress. The inhibitory action against the increased transportation ability of large intestine may be confirmed by a reported method (Miyata K et. al., J. Pharmacol. Exp. Ther., 261, 297-303, 1992. or Kobayashi S et. al., Jpn. J. Pharmacol., 86, 281-8, 2001.), but the method is not restricted thereto.\nA solvent or the Compound 1 was subcutaneously administered, and 15 minutes later, application of restraint stress was started. The number of feces within 60 minutes from the beginning of the application of the stress was counted and the effect was evaluated (one group consisted of 6 rats). The rats in a control group to which the restraint stress was not applied were merely moved to a new plastic cage.\nIn the group to which 5 w/v % xylitol solution containing 0.1 w/v % citric acid used as the solvent alone was administered, the rats to which the restraint stress was not applied defecated 1.0 feces on average within the 60 minutes, while the rats to which the restraint stress was applied defecated 6.5 feces on average, so that increase in the number of feces caused by the stress was observed.\nCompounds 10, 11, 12 and 13 were evaluated in the same manner as in Example 1. In the group to which 5 w/v % xylitol solution containing 0.1 w/v % citric acid used as the solvent alone was administered, the rats to which the restraint stress was applied defecated 7.5 feces on average within the 60 minutes. The number of feces was decreased to 0.3 on average when 0.3 mg/kg of Compound 10 was administered, decreased to 4.2 on average when 1 mg/kg of Compound 11 was administered, decreased to 3.7 on average when 0.3 mg/kg of Compound 12 was administered, and decreased to 4.1 on average when 10 mg/kg of Compound 13 was administered.", "key": {"[1]": {"conditions": "0.3 mg/kg subcutaneous 15 minutes before restraint stress, solvent group with stress 7.5"}}, "note": "Counter-ions that a name gives are not always drawn."}
{"smiles": "O=C1C2=C(CCCC2)C(=O)N1[C@@H]1CC[C@@]2(O)[C@H]3Cc4ccc(O)c5c4[C@@]2(CCN3CC2CC2)[C@H]1O5", "note": "[Compound 10, N-(17-cyclopropylmethyl-4,5α-epoxy-3,14-dihydroxy-morphinan-6β-yl)-3,4,5,6-tetrahydrophthalimide•tartaric Acid Salt]", "values": [{"measurement": "number of feces on average within 60 minutes from the beginning of restraint stress", "setting": "[1]", "result": 0.3}]}
{"smiles": "O=C1C=CC(=O)N1[C@@H]1CC[C@@]2(O)[C@H]3Cc4ccc(O)c5c4[C@@]2(CCN3CC2CC2)[C@H]1O5", "note": "[Compound 13, N-(17-cyclopropylmethyl-4,5α-epoxy-3,14-dihydroxy-morphinan-6β-yl)-maleimide•tartaric Acid Salt]", "values": [{"measurement": "number of feces on average within 60 minutes from the beginning of restraint stress", "setting": "10 mg/kg subcutaneous 15 minutes before restraint stress, solvent group with stress 7.5", "result": 4.1}]}
{"smiles": "O=C1c2cccc(F)c2CN1[C@@H]1CC[C@@]2(O)[C@H]3Cc4ccc(O)c5c4[C@@]2(CCN3CC2CC2)[C@H]1O5", "note": "[Compound 11, 2-(17-cyclopropylmethyl-4,5α-epoxy-3,14-dihydroxy-morphinan-6β-yl)-4-fluoro-2,3-dihydro-isoindole-1-one-methanesulfonic Acid Salt]", "values": [{"measurement": "number of feces on average within 60 minutes from the beginning of restraint stress", "setting": "1 mg/kg subcutaneous 15 minutes before restraint stress, solvent group with stress 7.5", "result": 4.2}]}
{"smiles": "O=C1c2ccccc2C(=O)N1[C@@H]1CC[C@@]2(O)[C@H]3Cc4ccc(O)c5c4[C@@]2(CCN3CC2CC2)[C@H]1O5", "note": "[Compound 1, N-(17-cyclopropylmethyl-4,5α-epoxy-3,14-dihydroxy-morphinan-6β-yl)-phthalimide]", "values": [{"measurement": "number of feces on average within 60 minutes from the beginning of restraint stress", "setting": "0.15 mg/kg subcutaneous 15 minutes before restraint stress, solvent group with stress 6.5, without stress 1.0", "result": 1.0}, {"measurement": "activity to reduce the number of feces with respect to the solvent group", "setting": "0.15 mg/kg subcutaneous, restraint stress, result in words", "result": "statistically significant activity to reduce the number of feces was observed"}]}
{"smiles": "O=C1c2ccccc2S(=O)(=O)N1[C@@H]1CC[C@@]2(O)[C@H]3Cc4ccc(O)c5c4[C@@]2(CCN3CC2CC2)[C@H]1O5", "note": "[Compound 12, N-(17-cyclopropylmethyl-4,5α-epoxy-3,14-dihydroxy-morphinan-6β-yl)-O-sulfonbenzimide•tartaric Acid Salt]", "values": [{"measurement": "number of feces on average within 60 minutes from the beginning of restraint stress", "setting": "[1]", "result": 3.7}]}
